From ChEMBL document CHEMBL1687837, “Roles of residues Cys69, Asn104, Phe160, Gly232, Ser237, and Asp240 in extended-spectrum beta-lactamase Toho-1” (2011)
≈ marks a conversion by molar mass, not a printed value.

Tests used:
Escherichia coli [1] = assay: Activity of Escherichia coli beta-lactamase Toho-1 D240S mutant assessed as compound hydrolysis by spectrophotometry
Escherichia coli [2] = assay: Ratio of Kcat to Km for Escherichia coli beta-lactamase Toho-1 D240A mutant assessed as compound hydrolysis by spectrophotometry
Escherichia coli [3] = assay: Ratio of Kcat to Km for Escherichia coli beta-lactamase Toho-1 […] mutant assessed as compound hydrolysis by spectrophotometry
Escherichia coli [4] = assay: Ratio of Kcat to Km for Escherichia coli beta-lactamase Toho-1 F160T mutant assessed as compound hydrolysis by spectrophotometry
Escherichia coli [5] = assay: Ratio of Kcat to Km for Escherichia coli beta-lactamase Toho-1 N104D mutant assessed as compound hydrolysis by spectrophotometry
Escherichia coli [6] = assay: Antibacterial activity against Escherichia coli AS226 carrying pBSDF160T mutant after 18 hrs by broth microdilution method; format: functional; conditions: AS226, 18 h
Escherichia coli [7] = assay: Antibacterial activity against Escherichia coli AS226 carrying pBSDC69A mutant after 18 hrs by broth microdilution method; format: functional; conditions: AS226, 18 h
Escherichia coli [8] = assay: Antibacterial activity against Escherichia coli AS226 carrying pBSDN104A mutant after 18 hrs by broth microdilution method; format: functional; conditions: AS226, 18 h
Escherichia coli [9] = assay: Antibacterial activity against Escherichia coli AS226 carrying pBSD6 mutant after 18 hrs by broth microdilution method; format: functional; conditions: AS226, 18 h
Escherichia coli [10] = assay: Activity of Escherichia coli beta-lactamase Toho-1 F160T mutant assessed as compound hydrolysis by spectrophotometry
Escherichia coli [11] = assay: Antibacterial activity against Escherichia coli AS226 carrying pBSD-H2 after 18 hrs by broth microdilution method; format: functional; conditions: AS226, 18 h
Escherichia coli [12] = assay: Ratio of Kcat to Km for Escherichia coli beta-lactamase Toho-1 C69A mutant assessed as compound hydrolysis by spectrophotometry
Escherichia coli [13] = assay: Ratio of Kcat to Km for Escherichia coli beta-lactamase Toho-1 G232A mutant assessed as compound hydrolysis by spectrophotometry
Escherichia coli [14] = assay: Activity of Escherichia coli beta-lactamase Toho-1 C69A mutant assessed as compound hydrolysis by spectrophotometry
Escherichia coli [15] = assay: Antibacterial activity against Escherichia coli AS226 carrying pBSDD240A mutant after 18 hrs by broth microdilution method; format: functional; conditions: AS226, 18 h
Escherichia coli [16] = assay: Activity of Escherichia coli beta-lactamase Toho-1 G232A mutant assessed as compound hydrolysis by spectrophotometry
Escherichia coli [17] = assay: Activity of Escherichia coli beta-lactamase Toho-1 N104D mutant assessed as compound hydrolysis by spectrophotometry
Escherichia coli [18] = assay: Activity of Escherichia coli beta-lactamase Toho-1 […] mutant assessed as compound hydrolysis by spectrophotometry
Escherichia coli [19] = assay: Antibacterial activity against Escherichia coli AS226 after 18 hrs by broth microdilution method; format: functional; conditions: AS226, 18 h
Escherichia coli [20] = assay: Activity of Escherichia coli beta-lactamase Toho-1 N104A mutant assessed as compound hydrolysis by spectrophotometry
Escherichia coli [21] = assay: Ratio of Kcat to Km for Escherichia coli beta-lactamase Toho-1 N104A mutant assessed as compound hydrolysis by spectrophotometry
Escherichia coli [22] = assay: Antibacterial activity against Escherichia coli AS226 carrying pBSDN104D mutant after 18 hrs by broth microdilution method; format: functional; conditions: AS226, 18 h
Escherichia coli [23] = assay: Antibacterial activity against Escherichia coli AS226 carrying pBSDS237A mutant after 18 hrs by broth microdilution method; format: functional; conditions: AS226, 18 h
Escherichia coli [24] = assay: Antibacterial activity against Escherichia coli AS226 carrying pBSDD240S mutant after 18 hrs by broth microdilution method; format: functional; conditions: AS226, 18 h
Escherichia coli [25] = assay: Ratio of Kcat to Km for Escherichia coli beta-lactamase Toho-1 D240S mutant assessed as compound hydrolysis by spectrophotometry
Escherichia coli [26] = assay: Activity of Escherichia coli beta-lactamase Toho-1 D240A mutant assessed as compound hydrolysis by spectrophotometry

Row | Compound | Km (Escherichia coli [1]) | kcat (Escherichia coli [1]) | kcat/Km (Escherichia coli [2]) | kcat/Km (Escherichia coli [3]) | kcat/Km (Escherichia coli [4]) | kcat/Km (Escherichia coli [5]) | MIC (Escherichia coli [6]) | MIC (Escherichia coli [7]) | MIC (Escherichia coli [8]) | MIC (Escherichia coli [9]) | Km (Escherichia coli [10]) | kcat (Escherichia coli [10]) | MIC (Escherichia coli [11]) | kcat/Km (Escherichia coli [12]) | kcat/Km (Escherichia coli [13]) | MIC (Escherichia coli [15]) | MIC (Escherichia coli [19]) | MIC (Escherichia coli [22]) | MIC (Escherichia coli [23]) | MIC (Escherichia coli [24]) | also measured
1 | CC1(C)S[C@@H]2[C@H](NC(=O)[C@H](N)c3ccccc3)C(=O)N2[C@H]1C(=O)O [AMPICILLIN] | 25 µM | 33 s⁻¹ | 1.2 ×10⁶ /s/M | 2.5 ×10⁶ /s/M | 1.5 ×10⁶ /s/M | 1.1 ×10⁶ /s/M | 512 µg/mL (≈ 1470 µM) | 1020 µg/mL (≈ 2930 µM) | 256 µg/mL (≈ 733 µM) | 128 µg/mL (≈ 366 µM) | 26 µM | 39 s⁻¹ | 256 µg/mL (≈ 733 µM) | 1.9 ×10⁶ /s/M | 1.1 ×10⁶ /s/M | 512 µg/mL (≈ 1470 µM) | 1 µg/mL (≈ 2.86 µM) | 1020 µg/mL (≈ 2930 µM) | 4100 µg/mL (≈ 11700 µM) | 512 µg/mL (≈ 1470 µM) | Km (Escherichia coli [14]): 20 µM; kcat (Escherichia coli [14]): 38 s⁻¹; Km (Escherichia coli [16]): 35 µM; kcat (Escherichia coli [16]): 37 s⁻¹; Km (Escherichia coli [17]): 25 µM; kcat (Escherichia coli [17]): 28 s⁻¹; Km (Escherichia coli [18]): 120 µM; kcat (Escherichia coli [18]): 310 s⁻¹; Km (Escherichia coli [20]): 38 µM; kcat (Escherichia coli [20]): 27 s⁻¹; kcat/Km (Escherichia coli [21]): 7.2 ×10⁵ /s/M; kcat/Km (Escherichia coli [25]): 1.3 ×10⁶ /s/M; Km (Escherichia coli [26]): 21 µM; kcat (Escherichia coli [26]): 27 s⁻¹
2 | C[C@H]1[C@H](NC(=O)/C(=N\OC(C)(C)C(=O)O)c2csc(N)n2)C(=O)N1S(=O)(=O)O [AZTREONAM] | 93 µM | 12 s⁻¹ | 1.5 ×10⁵ /s/M | 2.9 ×10⁵ /s/M | 9.6 ×10⁴ /s/M | 1.9 ×10⁴ /s/M | 16 µg/mL (≈ 36.7 µM) | 64 µg/mL (≈ 147 µM) | 8 µg/mL (≈ 18.4 µM) | 2 µg/mL (≈ 4.59 µM) | 69 µM | 6.6 s⁻¹ | 64 µg/mL (≈ 147 µM) | 7.7 ×10⁴ /s/M | 1.1 ×10⁵ /s/M | 128 µg/mL (≈ 294 µM) | < 0.125 µg/mL | 1 µg/mL (≈ 2.3 µM) | 128 µg/mL (≈ 294 µM) | 64 µg/mL (≈ 147 µM) | Km (Escherichia coli [14]): 58 µM; kcat (Escherichia coli [14]): 4.5 s⁻¹; Km (Escherichia coli [16]): 64 µM; kcat (Escherichia coli [16]): 6.7 s⁻¹; Km (Escherichia coli [18]): 31 µM; kcat (Escherichia coli [18]): 9.1 s⁻¹; Km (Escherichia coli [20]): 240 µM; kcat (Escherichia coli [20]): 8.6 s⁻¹; kcat/Km (Escherichia coli [21]): 3.5 ×10⁴ /s/M; kcat/Km (Escherichia coli [25]): 1.3 ×10⁵ /s/M; Km (Escherichia coli [26]): 100 µM; kcat (Escherichia coli [26]): 15 s⁻¹
3 | CO/N=C(\C(=O)N[C@@H]1C(=O)N2C(C(=O)O)=C(COC(C)=O)CS[C@H]12)c1csc(N)n1 [CEFOTAXIME] | 320 µM | 370 s⁻¹ | 1.3 ×10⁶ /s/M | 4.1 ×10⁵ /s/M | 1.2 ×10⁶ /s/M | 2.4 ×10⁵ /s/M | 256 µg/mL (≈ 562 µM) | 1020 µg/mL (≈ 2250 µM) | 16 µg/mL (≈ 35.1 µM) | 2 µg/mL (≈ 4.39 µM) | 360 µM | 410 s⁻¹ | 256 µg/mL (≈ 562 µM) | 1 ×10⁶ /s/M | 1.7 ×10⁶ /s/M | 512 µg/mL (≈ 1120 µM) | < 0.125 µg/mL | 256 µg/mL (≈ 562 µM) | 32 µg/mL (≈ 70.3 µM) | 1020 µg/mL (≈ 2250 µM) | Km (Escherichia coli [14]): 350 µM; kcat (Escherichia coli [14]): 370 s⁻¹; Km (Escherichia coli [16]): 259 µM; kcat (Escherichia coli [16]): 440 s⁻¹; Km (Escherichia coli [18]): 230 µM; kcat (Escherichia coli [18]): 94 s⁻¹; kcat/Km (Escherichia coli [21]): 1.2 ×10⁵ /s/M; kcat/Km (Escherichia coli [25]): 1.2 ×10⁶ /s/M; Km (Escherichia coli [26]): 360 µM; kcat (Escherichia coli [26]): 440 s⁻¹
4 | CO[C@@]1(NC(=O)Cc2cccs2)C(=O)N2C(C(=O)O)=C(COC(N)=O)CS[C@@H]21 [CEFOXITIN] |  |  |  |  |  |  | 2 µg/mL (≈ 4.68 µM) | 2 µg/mL (≈ 4.68 µM) | 1 µg/mL (≈ 2.34 µM) | 2 µg/mL (≈ 4.68 µM) |  |  | 1 µg/mL (≈ 2.34 µM) |  |  | 1 µg/mL (≈ 2.34 µM) | 1 µg/mL (≈ 2.34 µM) | 2 µg/mL (≈ 4.68 µM) | 2 µg/mL (≈ 4.68 µM) | 1 µg/mL (≈ 2.34 µM) | 
5 | CC(C)(O/N=C(\C(=O)N[C@@H]1C(=O)N2C(C(=O)[O-])=C(C[n+]3ccccc3)CS[C@H]12)c1csc(N)n1)C(=O)O [CEFTAZIDIME] |  |  |  |  |  |  | 1 µg/mL (≈ 1.83 µM) | 4 µg/mL (≈ 7.32 µM) | < 0.125 µg/mL | 0.25 µg/mL (≈ 0.457 µM) |  |  | 0.25 µg/mL (≈ 0.457 µM) |  |  | 8 µg/mL (≈ 14.6 µM) | < 0.125 µg/mL | < 0.125 µg/mL | 0.5 µg/mL (≈ 0.915 µM) | 4 µg/mL (≈ 7.32 µM) | 
